Measured values: patent US9615577B2, “Herbicidally active cyclic dione compounds, or derivatives therefor, substituted by a phenyl which has an alkynyl-containing substituent” (Syngenta Limited, priority 2012, dated 2017)

Columns and labels:
Type in all cases: in vivo
Setaria faberi (SETFA) [1] = assay: Biological Example 2 comparative herbicidal data, post-emergence glasshouse screen; conditions: 312 h, read-out: Post-emergence herbicidal activities (percentage phytotoxicity) SETFA; for pest or weed control at 8 g/ha: 8 g/ha application rate; for pest or weed control at 30 g/ha: 30 g/ha application rate
Experimental: (§1) Seeds of a variety of test species were sown in standard soil in pots. After cultivation for one day (pre-emergence) or after 8 days cultivation (post-emergence) under controlled conditions in a glasshouse (at 24/16° C., day/night; 14 hours light; 65% humidity), the plants were sprayed with an aqueous spray solution derived from the formulation of the technical active ingredient in acetone/I water (50:50) solution containing 0.5% Tween 20 (polyoxyethelyene sorbitan monolaurate, CAS RN 9005-64-5). The test plants were then grown in a glasshouse under controlled conditions in a glasshouse (at 24/16° C., day/night; 14 hours light; 65% humidity) and watered twice daily. After 13 days for pre and post-emergence, the test was evaluated visually for percentage phytotoxicity to the plant (where 100=total damage to plant; 0=no damage to plant).
(§2) Comparative herbicidal data is given below for certain exemplified compounds with 4-(prop-1-ynyl)-2,6-dimethylphenyl or 4-(chloroethynyl)-2,6-dimethylphenyl headgroups, compared to the corresponding compounds with either 4-ethynyl-2,6-dimethylphenyl or 2,4,6-trimethylphenyl headgroups, as follows. Comparative herbicidal data is also given below for certain exemplified compounds with 4-(prop-1-ynyl)-2-chloro-6-methoxyphenyl headgroups, compared to the corresponding compounds with 4-ethynyl-2-chloro-6-methoxyphenyl or 4-(but-1-ynyl)-2-chloro-6-methoxyphenyl or 4-methyl-2-chloro-6-methoxyphenyl or 2-chloro-6-methoxyphenyl headgroups, as follows.
(§3) Except where specified otherwise, the glasshouse screen for herbicidal activity is substantially the same as that presented in Biological Example 1A (Test 1A) hereinabove. The weed abbreviations are as defined in Biological Example 1A.

[2] = tested on: Alopecurus myosuroides (ALOMY); assay: as above; conditions: 312 h, read-out: Post-emergence herbicidal activities (percentage phytotoxicity) ALOMY; for pest or weed control at 8 g/ha: 8 g/ha application rate; for pest or weed control at 30 g/ha: 30 g/ha application rate
Experimental: as §1, §2, §3

[3] = tested on: Echinochloa crus-galli (ECHCG); assay: as above; conditions: 312 h, read-out: Post-emergence herbicidal activities (percentage phytotoxicity) ECHCG; for pest or weed control at 8 g/ha: 8 g/ha application rate; for pest or weed control at 30 g/ha: 30 g/ha application rate
Experimental: as §1, §2, §3

Setaria faberi (SETFA) [4] = assay: Test 1A glasshouse assay for herbicidal activity, pre-emergence; conditions: 312 h, evaluated after 13 days, read-out: percentage phytotoxicity SETFA
Experimental: as §1
(§4) Alopecurus myosuroides (ALOMY), Setaria faberi (SETFA), Echinochloa crus-galli (ECHCG), Solanum nigrum (SOLNI), Amaranthus retroflexus (AMARE), Ipomoea hederacea (IPOHE), and Abutilon theophasti Medik. (ABUTH, common English name “velvetleaf”). Of these, Alopecurus myosuroides (ALOMY), Setaria faberi (SETFA), and Echinochloa crus-galli (ECHCG) are grassy monocotyledonous weeds.

[5] = tested on: Alopecurus myosuroides (ALOMY); assay: as above; conditions: 312 h, evaluated after 13 days, read-out: percentage phytotoxicity ALOMY
Experimental: as §1, §4

[6] = tested on: Abutilon theophasti Medik. (ABUTH); assay: as above; conditions: 312 h, evaluated after 13 days, read-out: percentage phytotoxicity ABUTH
Experimental: as §1, §4

[7] = tested on: Amaranthus retroflexus (AMARE); assay: as above; conditions: 312 h, evaluated after 13 days, read-out: percentage phytotoxicity AMARE
Experimental: as §1, §4

[8] = tested on: Echinochloa crus-galli (ECHCG); assay: as above; conditions: 312 h, evaluated after 13 days, read-out: percentage phytotoxicity ECHCG
Experimental: as §1, §4

[9] = tested on: Amarantus retroflexus (AMARE); assay: Biological Example 2 comparative herbicidal data, post-emergence glasshouse screen; conditions: Amaranthus retroflexus, read-out: Post-emergence herbicidal activities (percentage phytotoxicity) AMARE; for pest or weed control at 8 g/ha: 8 g/ha application rate; for pest or weed control at 30 g/ha: 30 g/ha application rate
Setaria faberi (SETFA) [10] = assay: Test 1A glasshouse assay for herbicidal activity, post-emergence; conditions: 312 h, evaluated after 13 days, read-out: percentage phytotoxicity SETFA
Experimental: as §1, §4

[11] = tested on: Alopecurus myosuroides (ALOMY); assay: as above; conditions: 312 h, evaluated after 13 days, read-out: percentage phytotoxicity ALOMY
Experimental: as §1, §4

[12] = tested on: Abutilon theophasti Medik. (ABUTH); assay: as above; conditions: 312 h, evaluated after 13 days, read-out: percentage phytotoxicity ABUTH
Experimental: as §1, §4

[13] = tested on: Amaranthus retroflexus (AMARE); assay: as above; conditions: 312 h, evaluated after 13 days, read-out: percentage phytotoxicity AMARE
Experimental: as §1, §4

[14] = tested on: Echinochloa crus-galli (ECHCG); assay: as above; conditions: 312 h, evaluated after 13 days, read-out: percentage phytotoxicity ECHCG
Experimental: as §1, §4

[15] = tested on: Abutilon theophasti Medik. (ABUTH); assay: Biological Example 2 comparative herbicidal data, post-emergence glasshouse screen; conditions: read-out: Post-emergence herbicidal activities (percentage phytotoxicity) ABUTH; for pest or weed control at 8 g/ha: 8 g/ha application rate; for pest or weed control at 30 g/ha: 30 g/ha application rate

| SMILES | pest or weed control at 8 g/ha (Setaria faberi (SETFA) [1]) [%] | pest or weed control at 30 g/ha (Setaria faberi (SETFA) [1]) [%] | pest or weed control at 8 g/ha [2] [%] | pest or weed control at 30 g/ha [2] [%] | pest or weed control at 8 g/ha [3] [%] | pest or weed control at 30 g/ha [3] [%] | pest or weed control at 250 g/ha (Setaria faberi (SETFA) [4]) [%] | pest or weed control at 250 g/ha [5] [%] | pest or weed control at 250 g/ha [6] [%] | pest or weed control at 250 g/ha [7] [%] | pest or weed control at 250 g/ha [8] [%] | pest or weed control at 8 g/ha [9] [%] | pest or weed control at 30 g/ha [9] [%] | pest or weed control at 250 g/ha (Setaria faberi (SETFA) [10]) [%] | pest or weed control at 250 g/ha [11] [%] | pest or weed control at 250 g/ha [12] [%] | pest or weed control at 250 g/ha [13] [%] | pest or weed control at 250 g/ha [14] [%] | pest or weed control at 8 g/ha [15] [%] | pest or weed control at 30 g/ha [15] [%] | further results |
| --- | --- | --- | --- | --- | --- | --- | --- | --- | --- | --- | --- | --- | --- | --- | --- | --- | --- | --- | --- | --- | --- |
| C#Cc1cc(C)c(C2C(=O)CC(c3ccccn3)CC2=O)c(C)c1 (centres unmarked) [Compound X-4, reference compound] | 40 | 50 | 40 | 60 | 20 | 40 | 100 | 70 | 0 | 0 | 90 | 0 | 0 | 100 | 80 | 80 | 0 | 100 | 0 | 0 | pest or weed control at 30 g/ha (Setaria faberi (SETFA) [4]; 30 g/ha): 40%; pest or weed control at 30 g/ha ([5]; 30 g/ha): 0%; pest or weed control at 30 g/ha ([6]; 30 g/ha): 0%; pest or weed control at 30 g/ha ([7]; 30 g/ha): 0%; pest or weed control at 30 g/ha ([8]; 30 g/ha): 30%; pest or weed control at 30 g/ha (Setaria faberi (SETFA) [10]): 50%; pest or weed control at 30 g/ha [11]: 60%; pest or weed control at 30 g/ha [12]: 0%; pest or weed control at 30 g/ha [13]: 0%; pest or weed control at 30 g/ha [14]: 40% |
| C#Cc1cc(Cl)c(C2C(=O)C3CCC(C3)C2=O)c(OC)c1 (centres unmarked) [Compound B-3, 3-(2-Chloro-4-ethynyl-6-methoxy-phenyl)bicyclo[3.2.1]octane-2,4-dione] | 20 | – | 0 | 30 | 20 | 70 | 100 | 80 | 100 | 90 | 90 | 0 | 0 | 90 | 80 | 0 | 0 | 100 | 0 | 0 | – |
| CC#Cc1cc(Cl)c(C2C(=O)CCCC2=O)c(OC)c1 [Compound A-22, 2-(2-Chloro-6-methoxy-4-prop-1-ynyl-phenyl)cyclohexane-1,3-dione] | 70 | 80 | 10 | 60 | 80 | 90 | 100 | 90 | 60 | 70 | 100 | 0 | 20 | 100 | 90 | 70 | 0 | 100 | 0 | 10 | pest or weed control at 30 g/ha (Setaria faberi (SETFA) [10]): 80%; pest or weed control at 30 g/ha [11]: 60%; pest or weed control at 30 g/ha [12]: 10%; pest or weed control at 30 g/ha [13]: 20%; pest or weed control at 30 g/ha [14]: 90% |
